Results as given in patent publication US20160090351A1, “INHIBITORS OF DEUBIQUITINATING PROTEASES” (BRANDEIS UNIVERSITY, priority 2013, published 2016).
“Also recorded” adds a separate entry of the source.

Legend:
desumoylation = experiment: stabilization of SUMOylated proteins in lysates from HA-SUMO transfected HEK 293T cells; type: biochemical, human; details: G5 5 μM, C4 300 μM
Experimental: Untransfected HEK 293T cell lysates were treated with the vehicle alone (DMSO at 1%) or compound and incubated at 37° C. for 2 h. Samples were analyzed by SDS-PAGE and immunoblotting with antibody recognizing K48-linked ubiquitin. D=DMSO; G5=G5 isopeptidase inhibitor 1. A-D show titrations of different compounds (see FIG. 29B for structures). E-H Lysates were prepared from HEK 293T cells expressing HA-SUMO and treated with vehicle alone (DMSO, 1%) or compound. Samples were incubated for the appropriate time and analyzed by SDS-PAGE and immunoblotting with anti-HA antibody. Representative experiments are shown. E. Vehicle control. F. G5, 5 μM; G. C4, 300 μM. H. Quantification of blots as in E-G, N=2 average and range. I-J. Lysates were prepared from HEK 293T cells expressing HA-Ub and treated with either vehicle alone (1% DMSO) or compound at 37° C. for 3 h. Samples were analyzed by SDS-PAGE and immunoblotting with anti-HA antibody. I. A representative experiment. J. Quantitation of experiments in I (N=2 average and range shown). […]
Similar effects were observed when the endogenous K48-linked ubiquitin pool was monitored in lysates prepared from wild-type HEK 293T cells (FIG. 37A-D). Unfortunately, K63-linked ubiquitin could not be detected in these lysates. The ability of C4 to stabilize SUMOylated proteins in lysates from HA-SUMO transfected HEK 293T cells was also assessed.

DUBs = experiment: decomposition of high molecular weight ubiquitinated proteins (HMW-Ub) in lysates of HEK 293T cells expressing HA-Ub; type: biochemical, human; details: HEK 293T HA-Ub lysates, 37° C.
Experimental: FIG. 30 depicts data showing that diphenylcarbonates inhibit the decomposition of high molecular weight ubiquitinated proteins (HMW-Ub). Lysates were prepared from HEK 293T cells expressing HA-ubiquitin. Samples were incubated at 37° C. and reactions were quenched by the addition of reducing Laemmli buffer. HMW-Ub was assessed by SDS-PAGE and immunoblotting with anti-HA antibody. A. Representative immunoblots measuring the decomposition of HMW-Ub in lysates treated with either the DMSO vehicle, G5 (10 μM) or C4 (500 μM). B. Plot of the decomposition of HMW-Ub in lysates treated with DMSO and C4 (500 μM) (N=2; error bars denote range). C. Inhibition of HMW-Ub decomposition by diphenylcarbonates. Lysates were treated with diphenylcarbonates (50 μM). “-” denotes no treatment; D, 1% DMSO vehicle; IU1, an USP14-specific inhibitor; Bort, bortezomib, a proteasome inhibitor. D. Representative decomposition of HMW-Ub after 2 h incubation in the presence of varying concentrations of C4. See also FIG. 36. E. Quantitation of D. The values of EC50 reported in FIG. 29B are the average and S.E.M. of at least 3 independent experiments. See also FIG. 37 and FIG. 38.
Cells overexpressing HA-ubiquitin were prepared as above. Pellets were typically stored at −80° C. until required, at which time they were thawed on ice. Cell lysis was performed in lysis buffer using a Dounce homogenizer (10 strokes, with grinding, on ice: typical yield approx. 2-5 mg protein per transfected T75 flask for HEK 293T cells; 1-3 mg protein from a T75 flask for Cos-1). Crude lysate was centrifuged at 17000 g for 10 min at 4° C., after which time the concentration of the lysate was normalized to 1 mg/mL. The lysate was aliquoted into PCR strip tubes (typical volumes 75-50 μL) and compound in DMSO was added to this to give a final concentration of DMSO of 1%. Tubes were briefly centrifuged, overlaid with Chill-out wax (50 μL) and placed in a PCR machine at 37° C. with heated lid set to 37° C. Aliquots (9 μL) were removed at the stated times and immediately quenched in (2× final concentration) reducing (dithiothreitol) loading buffer and frozen (−19° C.) till required. Western blot analysis was carried out using standard methods. Samples were resolved by SDS-PAGE, transferred to PVDF [(0.45 μm) (Towbin buffer, tank apparatus, 90 V 1 hour, then overnight at 30 V, 4° C.)] then blocked in 15% milk in TBS-T HS (100 mM Tris HCl, pH 7.6, 500 mM NaCl, 0.5% […]) for at least 2 hours at RT. Afterward, membrane was washed in TBS-T HS then probed with anti HA-HRP (1:18000) for 1.33 hours at RT. Membrane was washed 3 times in TBS-T HS (15 mins) then once in TBS (15 mins) and exposed to ECL II and visualized using blue biofilm. […] When required, membranes were stripped in 100 mM glycine pH 4, 500 mM NaCl, 1% SDS, 5 mM BME, at 55° C. for 19 mins, then analyzed.
Lysates were prepared from HEK 293T cells expressing N-terminally HA-tagged ubiquitin (HA-Ub) to facilitate the observation of ubiquitinated proteins. In the absence of a DUB inhibitor, the HMW-Ub pool decomposed with a half-life of 34 min (FIG. 30A,B). […] Similar results were obtained in lysates prepared from Cos-1 cells expressing HA-Ub.

[1] = system: ubiquitin-proteasome system; experiment: GFP-G76V-Ub assay in HEK 293T cells; type: cell-based, human; details: diphenyl carbonates 100 μM, bortezomib 20 μM, G5 2 μM
Experimental: FIG. 32 depicts data showing that diphenyl carbonates inhibit DUBs in HEK 293T cells. A. Viability of HEK 293T cells assessed by the propidium iodide exclusion method: diphenyl carbonate (100 μM), bortezomib (V, 20 μM) and G5 (2 μM). N≧3, mean+/−s.d. B. HEK 293T cells were treated with the stated compounds (50 μM) for 2 h and then assayed for the accumulation of K48-linked Ub species. C. As in A, but K63-linked Ub was assayed. D. HEK 293T cells were treated with C14, C15, C17, C18 (100 μM) or DMSO for 2 hours, then harvested, lysed and treated with HA-Ub-VS. After 30 min, lysates were analyzed by SDS-PAGE and probed for HA, tubulin and actin. An intervening lane was removed for clarity. E. HEK 293T cells expressing Ub-G76V-GFP were treated with diphenyl carbonates (100 μM), bortezomib (20 μM) and G5 (2 μM). […] N>3, Mean+/−s.d. See also FIG. 39.
FACS was carried out on a […] FACS-Calibur. For HEK 293T and K562, cells were resuspended by repeated pipetting/agitation of the incubation media, followed by dilution into PBS. For Cos-1, MCF-7, and CHO cells, media was removed and trypsin was added. Harvested cells were placed in FACS buffer (0.5% FBS in PBS with 3 μg/mL propidium iodide) 30 s prior to analysis. All data were analyzed using FlowJo V10, from TreeStar (Ashland, Oreg.). Approximately 2500 cells were sorted per replicate. Cells were sorted by propidium iodide dye exclusion to give a “viable population”. GFP positive cells within this group were identified relative to untransfected controls. Then the geometric mean of the whole GFP positive population within the viable population was calculated. Typical transfection efficiencies for G76V ubiquitin were 60-70% for both Cos-1 and HEK 293T and 25-40% for CHO cells, based on GFP positive cells.
The activity of the diphenylcarbonates in the GFP-G76V-Ub assay, which monitors flux through the ubiquitin-proteasome system, was also investigated. The G76V mutation creates an unstable Ub fusion protein that is degraded in a proteasome dependent process. GFP fluorescence increased when HEK 293T cells expressing GFP-G76V-Ub were treated with the proteasome inhibitor bortezomib and decreased upon treatment with G5 (FIG. 39). This decrease has been attributed to increased flux through the ubiquitin-proteasome system triggered by the accumulation of HMW-Ub. […] Perhaps the inability of the diphenylcarbonates to inhibit UCH-L1/3 accounts for the stability of GFP-G76V-Ub. This selectivity might also explain the low cytoxicity of these compounds relative to G5.

[2] = system: G76V ubiquitin-GFP fusion protein; experiment: G76V ubiquitin-GFP fusion protein fluorescence, Example 5; type: cell-based; details: Example 5, FIG. 9 bottom panel
Experimental: Cells treated with 4 (100 μM; as defined in FIG. 3) show PARP cleavage that indicates caspases are active. The fluorescence of G76V ubiquitin-GFP fusion protein increases in the presence of inhibitor 4 (as defined in FIG. 3), as expected if degradation […] due to inhibition of DUBs. In contrast, GFP fluorescence […] when the proteasome is inhibited by bortezomib.

cathepsin C = cathepsin C (Homo sapiens, UniProt P53634); experiment: cathepsin C inhibition; type: biochemical; details: compounds numbered as in FIG. 5
cathepsin C, sequence (P53634 25-463, species assumed): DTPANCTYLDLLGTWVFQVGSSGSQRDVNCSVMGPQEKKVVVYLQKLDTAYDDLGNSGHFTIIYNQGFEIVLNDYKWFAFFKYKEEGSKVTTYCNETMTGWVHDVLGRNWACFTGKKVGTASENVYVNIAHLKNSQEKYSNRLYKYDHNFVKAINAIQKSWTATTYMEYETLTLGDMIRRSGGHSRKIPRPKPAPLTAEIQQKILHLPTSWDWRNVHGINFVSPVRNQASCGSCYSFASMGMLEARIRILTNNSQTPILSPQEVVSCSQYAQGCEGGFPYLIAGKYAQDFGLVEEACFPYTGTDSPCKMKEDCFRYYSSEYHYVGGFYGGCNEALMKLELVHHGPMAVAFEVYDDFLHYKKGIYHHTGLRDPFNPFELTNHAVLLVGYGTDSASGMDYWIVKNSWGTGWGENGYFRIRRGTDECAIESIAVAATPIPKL

| SMILES | inhibition of desumoylation (desumoylation) | stabilization of the HMW-Ub pool (DUBs) | GFP fluorescence [1] | GFP fluorescence of G76V ubiquitin-GFP [2] | inhibition of cathepsin C (cathepsin C) |
| --- | --- | --- | --- | --- | --- |
| NCc1ccc(OC(=O)Oc2ccccc2)cc1 [Compound C4, 4-(aminomethyl)phenyl(phenyl)carbonate] | Neither G5 nor C4 inhibited desumoylation | prevented decomposition of the HMW-Ub pool | – | – | – |
| CC(C)C[C@H](NC(=O)[C@H](Cc1ccccc1)NC(=O)c1cnccn1)B(O)O [bortezomib, reference compound] | – | failed to stabilize the HMW-Ub pools | Only bortezomib treatment caused an increase in GFP fluorescence; also recorded: increased | decreases | – |
| NCc1ccc(OC(=O)Oc2ccc(Cl)cc2)cc1 [compound 3] | – | – | – | – | does not |
| CC(C)(C)OC(=O)NCc1ccc(OC(=O)Oc2ccccc2)cc1 [compound 14] | – | – | – | – | inhibits cathepsin C |
